Measured values taken from PubChem BioAssay (NCI).
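Grown in 96-well plates, cells were treated for 48 hours with each compound at five concentrations. Insufficient inhibition: endpoint recorded as highest concentration tested. GI50 is the concentration that inhibits growth by half. Definition used: TGI = concentration required for complete inhibition of growth.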

Columns and labels:
Assay in all cases: growth of human tumour cells (NCI), 48 h
U251 CNS = test system: U251 CNS
HCT-116 colon = test system: HCT-116 colon
SF-539 CNS = test system: SF-539 CNS
HCC-2998 colon = test system: HCC-2998 colon
NCI-H460 lung = test system: NCI-H460 lung
SW-620 colon = test system: SW-620 colon
SF-295 CNS = test system: SF-295 CNS
HL-60(TB) leukemia = test system: HL-60(TB) leukemia
TK-10 renal = test system: TK-10 renal
OVCAR-5 ovarian = test system: OVCAR-5 ovarian

Structure (SMILES)	TGI (U251 CNS) [µM]	TGI (HCT-116 colon) [µM]	TGI (SF-539 CNS) [µM]	TGI (HCC-2998 colon) [µM]	TGI (NCI-H460 lung) [µM]	TGI (SW-620 colon) [µM]	TGI (SF-295 CNS) [µM]	TGI (HL-60(TB) leukemia) [µM]	TGI (TK-10 renal) [µM]	TGI (OVCAR-5 ovarian) [µM]	GI50 (U251 CNS) [µM]	GI50 (HCT-116 colon) [µM]	GI50 (SF-539 CNS) [µM]	GI50 (HCC-2998 colon) [µM]	GI50 (NCI-H460 lung) [µM]	GI50 (SW-620 colon) [µM]	GI50 (SF-295 CNS) [µM]	GI50 (HL-60(TB) leukemia) [µM]	GI50 (TK-10 renal) [µM]	GI50 (OVCAR-5 ovarian) [µM]
CC1C2Cc3ccc(O)cc3C1(C)CCN2C (stereo not given)	> 100	> 100	> 100	> 100	> 100	> 100	> 100	> 100	> 100	> 100										
O=C1NC(=NCc2cccs2)SC1Cc1ccc2ncccc2c1 (stereo not given)	> 25	> 25	> 25	> 25	> 25	> 25	> 25	> 25	> 25	> 25	17.6	10.7	10.3	> 25	11.8	9.16	11.6	11.8	> 25	> 25
C/C=C/C=N/N(c1nnc(-c2ccccc2)c(-c2ccccc2)n1)S(=O)(=O)c1ccc(C)cc1	12.7	28	23.8	31.3	28.3	14.9	22.9	6.36	28.2	33.5										
OC1CN(OC/C=C/c2ccccc2)CC(O)C1O (stereo not given)	> 100	> 100	> 100	> 100	> 100	> 100	> 100	> 100	> 100	> 100										
Cc1cc(C)nc(NS(=O)(=O)c2ccc(Nc3c4ccccc4nc4c(C(=O)NCCN(C)C)ccc(Cl)c34)cc2)n1	10.4	7.23	11.5	26.7	2.7	9.04	5.91	7.6	20.3	14.9										
COc1c(OC(C)=O)cc2c(OC(C)=O)c1CC(C)CC(OC)C(O)C(C)/C=C(\C)C(OC(N)=O)C(OC)/C=C\C=C(/C)C(=O)N2 (stereo not given)	> 100	> 100	> 100	> 100	> 100	> 100	> 100	> 67.5	> 100	> 100										
CCOP(=O)(CCP(=O)(OCC)OCC)OCC.C[CH2][Sn]([Cl])([Cl])[CH2]C	> 69.3	> 100	52.1	> 100	> 100	42.1	> 100	> 95.2	52	> 100	37.9	> 67.3	34.9	> 69.4	> 81.8	21.2	> 81.8	56.6	30.6	72
CCCOc1ccc(/C(Cl)=C(\C=O)c2ccc(OC)c(OC)c2)cc1OCCC	33.9	10.8	55.1	15.4	28.7	> 100	88.3	20.9	94.3	> 100										
O=C1NC(=NCC(CO)c2ccccc2)S/C1=C\c1ccc2ncccc2c1 (stereo not given)	> 25	> 25	> 25	> 25	> 25	> 25	> 25	> 25	> 25	> 25	9.91	8.51	11.2	24.6	> 16.1	7.74	> 25	8.34	> 21.8	> 25
